The series in a line: Particle size and specific surface area analysis (Malvern Mastersizer 3000, laser diffraction). The class given is physicochemical. The note with it: for D10 / D50 / D90: particle size of desidustat used in the composition. The method, then:
(i) Particle Size and Specific Surface Area Analysis Method:
Particle size was determined by Malvern Mastersizer 3000 with Hydro MV accessory, laser diffraction particle size analyser. About 100 mg of drug substance weighed and transferred into 100 mL of glass beaker. About 10-15 drops of dispersant sunflower oil:cyclohexane (80:20) were added and the lumps were broken with glass rod for about 3 to 5 min. 20 mL of dispersant was added into the same glass beaker and the content were shaken for 3-5 minutes with glass rod to mix well. Background measurement using dispersant was performed. When the blank correction/background measurement was over, sample slurry (with continuous manual shaking) was added in the sampler at 1500 rpm to get the target obscuration value between 10% and 30% and remained constant. Then the histogram was recorded.

[1] abbreviates: Example 1, after further multi-milling using 0.2 mm sieve.

In turn, `O=C(O)CNC(=O)c1c(O)c2ccccc2n(OCC2CC2)c1=O` [Milled desidustat] showed a D10 of 0.80 μm, a D50 of 22.7 μm and a D90 of 130.0 μm.

In turn, `O=C(O)CNC(=O)c1c(O)c2ccccc2n(OCC2CC2)c1=O` [Unmilled desidustat] had a D10 of 2.16 μm, a D50 of 98.3 μm and a D90 of 366 μm.

Regarding `O=C(O)CNC(=O)c1c(O)c2ccccc2n(OCC2CC2)c1=O` [desidustat, 2-(1-(Cyclopropylmethoxy)-4-hydroxy-2-oxo-1,2-dihydroquinoline-3-carboxamido) acetic acid], under setting [1], the “Particle size distribution D10” value was determined as 0.80 μm, the “Particle size distribution D50” value worked out at 22.7 μm, the “Particle size distribution D90” value was 130 μm and the Specific surface area worked out at 2 m^2/g. Further, the “Particle size D90” value (Example 1, after multi-milling using 5 mm sieve and drying, before 0.2 mm sieve) was determined as 366 μm.
